According to patent publication US10752607B2, “Polymorphs of N-[(6-cyano-2-fluoro)-3-methoxyphenyl)methyl]-3-(methoxymethyl)-1-({4-[(2-oxopyridin-1-yl)methyl]phenyl}methyl)pyrazole-4-carboxamide as kallikrein inhibitors” (KALVISTA PHARMACEUTICALS LIMITED, priority 2016, dated 2020):
One block for each molecule: values may come before it.

Experiments:
rats = conditions: systemic administration; cited from earlier work
[1] = in vivo; cited from earlier work
Human FXIa = molecular target: T1, Human FXIa (Homo sapiens, UniProt P03951); assay: Determination of the % inhibition for FXIa (fluorogenic substrate Z-Gly-Pro-Arg-AFC); type: biochemical; conditions: 40 μM test compound, 25° C.
T1 construct: purchased Enzyme Research Laboratories
Experimental: Determination of the % Inhibition for FXIa
FXIa inhibitory activity in vitro was determined using standard published methods (see e.g. Johansen et al., Int. J. Tiss. Reac. 1986, 8, 185; Shori et al., Biochem. Pharmacol., 1992, 43, 1209; Stürzebecher et al., Biol. Chem. Hoppe-Seyler, 1992, 373, 1025). Human FXIa (Enzyme Research Laboratories) was incubated at 25° C. with the fluorogenic substrate Z-Gly-Pro-Arg-AFC and 40 μM of the test compound. Residual enzyme activity (initial rate of reaction) was determined by measuring the change in […].

[2] = Pharmacokinetic study, single oral dose in male Sprague-Dawley rats; type: in vivo; conditions: male Sprague-Dawley rat, 10% DMSO/10% cremophor/80% SWFI, plasma
Experimental: A pharmacokinetic study of N-[(6-cyano-2-fluoro-3-methoxyphenyl)methyl]-3-(methoxymethyl)-1-({4-[(2-oxopyridin-1-yl)methyl]phenyl}methyl)pyrazole-4-carboxamide was performed to assess the pharmacokinetics following a single oral dose in male Sprague-Dawley rats. Two rats were given a single po dose of 5 mL/kg of a nominal 2 mg/mL (10 mg/kg) composition of test compound in vehicle. Following dosing, blood samples were collected over a period of 24 hours. Sample times were 5, 15 and 30 minutes then 1, 2, 4, 6, 8 and […]. Following collection, blood samples were centrifuged and the plasma fraction analysed for concentration of test compound by LCMS.

[3] = system: LPS-induced disseminated intravascular coagulation; conditions: cited from earlier work
[4] = contacting blood with the inhibitor; cited from earlier work
[5] = system: intrinsic pathway of coagulation; conditions: in vitro; cited from earlier work

T1 sequence (P03951 388-625 limits assumed): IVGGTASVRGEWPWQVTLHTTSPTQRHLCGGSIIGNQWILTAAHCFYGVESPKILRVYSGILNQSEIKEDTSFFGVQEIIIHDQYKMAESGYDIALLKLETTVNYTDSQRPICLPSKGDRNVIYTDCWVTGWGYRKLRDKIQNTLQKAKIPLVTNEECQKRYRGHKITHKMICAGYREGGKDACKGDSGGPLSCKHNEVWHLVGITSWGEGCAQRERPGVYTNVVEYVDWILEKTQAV
T1 sequence (P03951 19-387 partner limits assumed): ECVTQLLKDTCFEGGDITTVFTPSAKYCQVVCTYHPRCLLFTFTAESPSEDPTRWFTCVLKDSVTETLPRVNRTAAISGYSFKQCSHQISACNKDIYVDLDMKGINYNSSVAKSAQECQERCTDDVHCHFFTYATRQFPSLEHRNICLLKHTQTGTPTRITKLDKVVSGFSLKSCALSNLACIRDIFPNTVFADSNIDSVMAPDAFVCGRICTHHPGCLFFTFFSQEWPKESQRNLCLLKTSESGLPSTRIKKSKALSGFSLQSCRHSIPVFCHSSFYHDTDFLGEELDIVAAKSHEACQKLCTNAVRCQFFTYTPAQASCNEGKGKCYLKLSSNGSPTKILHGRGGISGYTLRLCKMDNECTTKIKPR

Molecule: N=C(N)c1ccc(CNC(=O)c2cnn(Cc3ccccc3)c2)cc1 [ASP-440]
hematoma expansion (rats): reduced hematoma expansion | oral availability [1]: poor oral availability

inhibition at 40 µM (Human FXIa): 28% | Cmax ([2]; single po dose 5.5 mg/kg): 397 ng/mL | Tmax ([2]; single po dose 5.5 mg/kg): 30 min | Cmax ([2]; single po dose 7.8 mg/kg): 360 ng/mL | Tmax ([2]; single po dose 7.8 mg/kg): 60 min
Molecule: COCc1nn(Cc2ccc(Cn3ccccc3=O)cc2)cc1C(=O)NCc1c(C#N)ccc(OC)c1F [N-[(6-cyano-2-fluoro-3-methoxyphenyl)methyl]-3-(methoxymethyl)-1-({4-[(2-oxopyridin-1-yl)methyl]phenyl}methyl)pyrazole-4-carboxamide]

Molecule: Cl.NCC1CCC(C(=O)N[C@@H](Cc2ccccc2)C(=O)Nc2ccc(CC(=O)O)cc2)CC1 (stereo partly shown) [PKSI-527]
platelet count, fibrinogen level and FDP level [3]: significantly suppressed the decrease in platelet count and fibrinogen level as well as the increase in FDP level

Molecule: Ecallantide
activated clotting time (ACT) [4]: increase in activated clotting time (ACT) | contact activated induced coagulation [5]: delay contact activated induced coagulation
